Experimental data as given in PubChem BioAssay (NCI).
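1) Cells in 96-well plates. 2) Compound, 48 h, 5 concentrations. 3) Linear interpolation between surrounding doses. 4) Unreached endpoint = highest concentration. Abbreviation: GI50, concentration required for 50% inhibition of growth. TGI denotes the concentration required for complete inhibition of growth.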

Columns and labels:
Assay in all cases: DTP human tumour cell line panel, 48 h
A498 renal = test system: A498 renal
MOLT-4 leukemia = test system: MOLT-4 leukemia
PC-3 prostate = test system: PC-3 prostate
SK-MEL-28 melanoma = test system: SK-MEL-28 melanoma
SN12C renal = test system: SN12C renal
SR leukemia = test system: SR leukemia
T-47D breast = test system: T-47D breast
TK-10 renal = test system: TK-10 renal
DMS 114 small cell lung = test system: DMS 114 small cell lung
M19-MEL melanoma = test system: M19-MEL melanoma
SNB-78 CNS = test system: SNB-78 CNS
XF 498 CNS = test system: XF 498 CNS

COc1ccc(/C=C/C(=O)c2ccc(B(O)O)cc2)cc1O
GI50 (A498 renal): 5.47 µM | TGI (A498 renal): 21.8 µM | GI50 (MOLT-4 leukemia): 10.9 µM | TGI (MOLT-4 leukemia): > 100 µM | GI50 (PC-3 prostate): 15 µM | TGI (PC-3 prostate): 50.1 µM | GI50 (SK-MEL-28 melanoma): 22.3 µM | TGI (SK-MEL-28 melanoma): > 89.5 µM | GI50 (SN12C renal): 20.1 µM | TGI (SN12C renal): > 77.7 µM | GI50 (SR leukemia): 3.2 µM | TGI (SR leukemia): > 100 µM | GI50 (T-47D breast): 13.5 µM | TGI (T-47D breast): 50.9 µM | GI50 (TK-10 renal): 30.4 µM | TGI (TK-10 renal): > 67.6 µM

Cc1ccccc1C(C#N)/C(=N/NC(N)=S)C(=O)Nc1c(C)cccc1C (stereo unspecified)
TGI (DMS 114 small cell lung): > 100 µM | TGI (M19-MEL melanoma): > 100 µM | TGI (MOLT-4 leukemia): > 100 µM | TGI (SK-MEL-28 melanoma): > 100 µM | TGI (SN12C renal): > 100 µM | TGI (SNB-78 CNS): > 100 µM | TGI (TK-10 renal): > 100 µM | TGI (XF 498 CNS): > 100 µM

Cc1cc2c(cc1C)[n+](=O)c(C(=O)CC(=O)C(=O)Nc1ccccc1C)c(C)n2[O-]
TGI (A498 renal): > 100 µM | TGI (M19-MEL melanoma): > 100 µM | TGI (MOLT-4 leukemia): > 100 µM | TGI (SK-MEL-28 melanoma): > 100 µM | TGI (SN12C renal): > 100 µM | TGI (SNB-78 CNS): > 100 µM | TGI (SR leukemia): > 100 µM | TGI (TK-10 renal): > 100 µM

O=C1NC(=N[C@@H]2C[C@H]2c2ccccc2)S/C1=C\c1ccc2ncccc2c1
GI50 (A498 renal): 0.613 µM | TGI (A498 renal): 4.48 µM | GI50 (MOLT-4 leukemia): 4.29 µM | TGI (MOLT-4 leukemia): 21.8 µM | GI50 (PC-3 prostate): 3.27 µM | TGI (PC-3 prostate): 9.09 µM | GI50 (SK-MEL-28 melanoma): 4.46 µM | TGI (SK-MEL-28 melanoma): > 18 µM | GI50 (SN12C renal): 1.68 µM | TGI (SN12C renal): > 25 µM | GI50 (SR leukemia): 0.646 µM | TGI (SR leukemia): 3.27 µM | GI50 (T-47D breast): 1.81 µM | TGI (T-47D breast): 13.8 µM | GI50 (TK-10 renal): 0.899 µM | TGI (TK-10 renal): 5.58 µM

CC[C@H]1[C@@H](C)C=C[C@@H](C)N1S(=O)(=O)c1ccc(C)cc1
TGI (A498 renal): > 100 µM | TGI (DMS 114 small cell lung): 34.9 µM | TGI (M19-MEL melanoma): > 100 µM | TGI (MOLT-4 leukemia): > 100 µM | TGI (SK-MEL-28 melanoma): > 100 µM | TGI (SN12C renal): > 100 µM | TGI (SNB-78 CNS): > 100 µM | TGI (SR leukemia): > 100 µM | TGI (XF 498 CNS): 42.4 µM

CCOC(=O)c1cc2c(OC)cc(OC)cc2oc1=O
TGI (A498 renal): > 100 µM | TGI (MOLT-4 leukemia): > 100 µM | TGI (PC-3 prostate): > 100 µM | TGI (SK-MEL-28 melanoma): > 100 µM | TGI (SN12C renal): > 100 µM | TGI (SR leukemia): > 100 µM | TGI (T-47D breast): > 100 µM | TGI (TK-10 renal): > 100 µM

S=c1sc2sc(=S)sc2s1
TGI (A498 renal): 48.2 µM | TGI (M19-MEL melanoma): 75.6 µM | TGI (MOLT-4 leukemia): > 100 µM | TGI (SN12C renal): > 100 µM | TGI (SNB-78 CNS): > 100 µM | TGI (SR leukemia): > 100 µM | TGI (TK-10 renal): > 100 µM

CSc1nc(SC)c2cnn(-c3ccnc4cc(Cl)ccc34)c2n1
GI50 (A498 renal): > 100 µM | TGI (A498 renal): > 100 µM | GI50 (MOLT-4 leukemia): 42.5 µM | TGI (MOLT-4 leukemia): > 89.6 µM | GI50 (PC-3 prostate): > 82.3 µM | TGI (PC-3 prostate): > 100 µM | GI50 (SK-MEL-28 melanoma): > 100 µM | TGI (SK-MEL-28 melanoma): > 100 µM | GI50 (SN12C renal): 51 µM | TGI (SN12C renal): > 100 µM | GI50 (SR leukemia): 7.88 µM | TGI (SR leukemia): > 31.9 µM | GI50 (T-47D breast): > 100 µM | TGI (T-47D breast): > 100 µM | GI50 (TK-10 renal): 30.9 µM | TGI (TK-10 renal): > 89.1 µM

Cc1cc2c(=O)cc(-c3ccc(C(=O)O)cc3)oc2c(C(N)=O)c1C
TGI (A498 renal): > 100 µM | TGI (DMS 114 small cell lung): > 100 µM | TGI (M19-MEL melanoma): > 100 µM | TGI (MOLT-4 leukemia): > 100 µM | TGI (SK-MEL-28 melanoma): > 100 µM | TGI (SN12C renal): > 100 µM | TGI (SNB-78 CNS): > 100 µM | TGI (TK-10 renal): > 100 µM

CC[C@@]1(O)C(=O)OCc2c1cc1n(c2=O)Cc2cc3c(OC)cccc3nc2-1
GI50 (A498 renal): 0.00301 µM | TGI (DMS 114 small cell lung): 0.28 µM | TGI (M19-MEL melanoma): 0.643 µM | GI50 (MOLT-4 leukemia): 0.000417 µM | TGI (PC-3 prostate): > 100 µM | GI50 (SK-MEL-28 melanoma): 1.72 µM | TGI (SK-MEL-28 melanoma): > 28.1 µM | GI50 (SN12C renal): 0.00326 µM | TGI (SN12C renal): 3.4 µM | TGI (SR leukemia): 1.35 µM | GI50 (T-47D breast): > 100 µM | TGI (T-47D breast): > 100 µM | TGI (TK-10 renal): 50 µM | TGI (XF 498 CNS): 0.876 µM

CN(CCNc1ccc(C(=N)N)cc1)c1ccc(C(=N)N)cc1
GI50 (A498 renal): 4.43 µM | TGI (A498 renal): 44.7 µM | GI50 (MOLT-4 leukemia): > 100 µM | TGI (MOLT-4 leukemia): > 100 µM | GI50 (PC-3 prostate): 53 µM | TGI (PC-3 prostate): > 100 µM | GI50 (SK-MEL-28 melanoma): 36.4 µM | TGI (SK-MEL-28 melanoma): > 100 µM | GI50 (SN12C renal): 5.53 µM | TGI (SN12C renal): > 100 µM | GI50 (SR leukemia): 28.6 µM | TGI (SR leukemia): > 100 µM | GI50 (T-47D breast): 23.9 µM | TGI (T-47D breast): > 100 µM | GI50 (TK-10 renal): 53.4 µM | TGI (TK-10 renal): > 100 µM

Clc1ccc(Nc2ncnc3ccccc23)cc1
GI50 (A498 renal): 17.6 µM | TGI (A498 renal): 85.8 µM | GI50 (MOLT-4 leukemia): 20.6 µM | TGI (MOLT-4 leukemia): 59.5 µM | GI50 (PC-3 prostate): 47 µM | TGI (PC-3 prostate): > 100 µM | GI50 (SK-MEL-28 melanoma): > 100 µM | TGI (SK-MEL-28 melanoma): > 100 µM | GI50 (SN12C renal): 23 µM | TGI (SN12C renal): 73.1 µM | GI50 (SR leukemia): 23 µM | TGI (SR leukemia): 60.9 µM | GI50 (T-47D breast): 80 µM | TGI (T-47D breast): > 100 µM | GI50 (TK-10 renal): 2.79 µM | TGI (TK-10 renal): 31 µM

CN1CCN(C(=O)OCc2nc3c(N4CCOCC4)nc(-c4ccccc4)nc3n2C)CC1
GI50 (A498 renal): 1.53 µM | TGI (A498 renal): 2.91 µM | GI50 (MOLT-4 leukemia): 0.526 µM | TGI (MOLT-4 leukemia): 3.12 µM | GI50 (PC-3 prostate): 1.09 µM | TGI (PC-3 prostate): 2.49 µM | GI50 (SK-MEL-28 melanoma): 1.48 µM | TGI (SK-MEL-28 melanoma): 2.81 µM | GI50 (SN12C renal): 0.814 µM | TGI (SN12C renal): 2.12 µM | GI50 (SR leukemia): 0.35 µM | TGI (SR leukemia): > 100 µM | GI50 (T-47D breast): 1.53 µM | TGI (T-47D breast): 4.51 µM | GI50 (TK-10 renal): 1.67 µM | TGI (TK-10 renal): 3.12 µM

CN1C(=O)CNS1(=O)=O
TGI (A498 renal): > 100 µM | TGI (DMS 114 small cell lung): > 100 µM | TGI (MOLT-4 leukemia): > 100 µM | TGI (SK-MEL-28 melanoma): > 100 µM | TGI (SN12C renal): > 100 µM | TGI (SNB-78 CNS): > 100 µM | TGI (SR leukemia): > 100 µM | TGI (TK-10 renal): > 100 µM | TGI (XF 498 CNS): > 100 µM

Cc1cc2c(=O)cc(-c3ccc(Cl)c(Cl)c3)oc2c(C(=O)O)c1C
TGI (DMS 114 small cell lung): > 100 µM | TGI (M19-MEL melanoma): > 100 µM | TGI (MOLT-4 leukemia): > 100 µM | TGI (SK-MEL-28 melanoma): > 100 µM | TGI (SN12C renal): > 100 µM | TGI (SNB-78 CNS): > 100 µM | TGI (TK-10 renal): > 100 µM | TGI (XF 498 CNS): > 100 µM

CSc1nc(SC)c2c(C)cn(Cc3ccccc3)c2n1
TGI (A498 renal): > 100 µM | TGI (MOLT-4 leukemia): > 100 µM | TGI (PC-3 prostate): > 100 µM | TGI (SK-MEL-28 melanoma): > 100 µM | TGI (SN12C renal): > 100 µM | TGI (SR leukemia): > 100 µM | TGI (T-47D breast): > 100 µM | TGI (TK-10 renal): > 100 µM

CC(C)c1ccc2c(c1)CCC1C(C)(CN)CCCC21C (stereo unspecified)
TGI (A498 renal): 2.78 µM | TGI (MOLT-4 leukemia): 3.61 µM | TGI (PC-3 prostate): 3.12 µM | TGI (SK-MEL-28 melanoma): 3.11 µM | TGI (SN12C renal): 3.16 µM | TGI (SR leukemia): 2.99 µM | TGI (T-47D breast): 3.3 µM | TGI (TK-10 renal): 3.08 µM

O=C(O)COc1ccc2c3c1C(=O)CCC3CO2 (stereo unspecified)
TGI (A498 renal): > 100 µM | TGI (DMS 114 small cell lung): > 100 µM | TGI (M19-MEL melanoma): > 100 µM | TGI (MOLT-4 leukemia): > 100 µM | TGI (SK-MEL-28 melanoma): > 100 µM | TGI (SN12C renal): > 100 µM | TGI (SNB-78 CNS): > 100 µM | TGI (TK-10 renal): > 100 µM | TGI (XF 498 CNS): > 100 µM

O=C1C2=C(c3ccccc31)C(c1ccccc1Cl)NC(=S)N2 (stereo unspecified)
TGI (A498 renal): > 100 µM | TGI (M19-MEL melanoma): > 100 µM | TGI (MOLT-4 leukemia): > 100 µM | TGI (SK-MEL-28 melanoma): > 100 µM | TGI (SN12C renal): > 100 µM | TGI (TK-10 renal): > 100 µM | TGI (XF 498 CNS): > 100 µM

C=CCC1=C2CCCCC2CCC1=O (stereo unspecified)
TGI (A498 renal): > 100 µM | TGI (DMS 114 small cell lung): > 100 µM | TGI (M19-MEL melanoma): > 100 µM | TGI (MOLT-4 leukemia): > 100 µM | TGI (SK-MEL-28 melanoma): > 100 µM | TGI (SN12C renal): > 100 µM | TGI (SNB-78 CNS): > 100 µM | TGI (TK-10 renal): > 100 µM | TGI (XF 498 CNS): > 100 µM
